The results in this text go back to ChEMBL document CHEMBL5137044, “Expansion of the S-CN-DABO scaffold to exploit the impact on inhibitory activities against the non-nucleoside HIV-1 reverse transcriptase” (Eur J Med Chem, 2022).

The nature of data set [1]: Fold resistance, ratio of EC50 for antiviral activity against drug-resistant HIV-1 L100I mutant infected in human MT4 cells to EC50 for antiviral activity against […] HIV-1 infected in human MT4 cells. It is filed as functional.
In data set [2] the test system is Human immunodeficiency virus 1. As to the kind of experiment: Antiviral activity against drug-resistant HIV-1 Y181C mutant infected in human MT4 cells assessed as reduction in virus-induced cytopathic effect incubated for 5 days by MTT assay. The class given is functional, organism-based. The settings on record: Human immunodeficiency virus 1, Y181C mutant, MT4, 120 h. In general terms: Damage to the host cells serves as the signal in cytopathic effect assays.

Data set [3] deals with Human immunodeficiency virus 1. As to the kind of experiment: Antiviral activity against drug-resistant HIV-1 K103 N mutant infected in human MT4 cells assessed as reduction in virus-induced cytopathic effect incubated for 5 days by MTT assay. It is filed as functional, organism-based. The settings on record: Human immunodeficiency virus 1, K103 N mutant, MT4, 120 h.
Data set [4] concerns Human immunodeficiency virus 1. As to the kind of experiment: Antiviral activity against drug-resistant HIV-1 E138K mutant infected in human MT4 cells assessed as reduction in virus-induced cytopathic effect incubated for 5 days by MTT assay. The class given is functional, organism-based. Particulars: Human immunodeficiency virus 1, E138K mutant, MT4, 120 h.
Data set [5] in a line: Cytotoxicity against human MT4 cells assessed as cell growth inhibition incubated for 5 days by MTT assay. Particulars: time 5 day. It is filed as toxicity, cell-based.
A short description of data set [6]: Fold resistance, ratio of EC50 for antiviral activity against drug-resistant HIV-1 K103 N mutant infected in human MT4 cells to EC50 for antiviral activity against […] HIV-1 infected in human MT4 cells. It is filed as functional.
Data set [7] is described as follows: Fold resistance, ratio of EC50 for antiviral activity against drug-resistant HIV-1 Y188L mutant infected in human MT4 cells to EC50 for antiviral activity against […] HIV-1 infected in human MT4 cells. It is filed as functional.
The nature of data set [8]: Fold resistance, ratio of EC50 for antiviral activity against drug-resistant HIV-1 E138K mutant infected in human MT4 cells to EC50 for antiviral activity against […] HIV-1 infected in human MT4 cells. The class given is functional.
Data set [9] has as its target Human immunodeficiency virus type 1 reverse transcriptase (Human immunodeficiency virus 1, UniProt Q72547). As to the kind of experiment: Inhibition of recombinant wild-type p66/p51 HIV-1 reverse transcriptase incubated for 40 mins by picogreen dye-based spectrofluorometric analysis.
A short description of data set [10]: Selectivity index, ratio of CC50 for human MT4 cells to EC50 for antiviral activity against NNRTI resistant HIV-1 infected in human MT4 cells. The class given is toxicity, cell-based. The settings on record: read-out: Ratio CC50/EC50.
Data set [11] can be described thus: Fold resistance, ratio of EC50 for antiviral activity against drug-resistant HIV-1 Y181C mutant infected in human MT4 cells to EC50 for antiviral activity against […] HIV-1 infected in human MT4 cells. It is filed as functional.
In data set [12] the test system is Human immunodeficiency virus 1. As to the kind of experiment: Antiviral activity against […] HIV-1 infected in human MT4 cells assessed as reduction in virus-induced cytopathic effect incubated for 5 days by MTT assay. It is filed as functional, organism-based. Particulars: Human immunodeficiency virus 1, MT4, 120 h.
The subject of data set [13] is Human immunodeficiency virus 1. As to the kind of experiment: Antiviral activity against drug-resistant HIV-1 Y188L mutant infected in human MT4 cells assessed as reduction in virus-induced cytopathic effect incubated for 5 days by MTT assay. It is filed as functional, organism-based. Particulars: Human immunodeficiency virus 1, Y188L mutant, MT4, 120 h.
Data set [14] concerns Human immunodeficiency virus 1. As to the kind of experiment: Antiviral activity against drug-resistant HIV-1 L100I mutant infected in human MT4 cells assessed as reduction in virus-induced cytopathic effect incubated for 5 days by MTT assay. It is filed as functional, organism-based. Particulars: Human immunodeficiency virus 1, L100I mutant, MT4, 120 h.

Broadly, the EC50 is the concentration giving half of the maximal effect. By CC50 is commonly meant the concentration that lowers cell viability or growth by half. One may read the IC50 as the point on the concentration scale where inhibition reaches its midpoint. For `Cc1c(C(C#N)c2cccnc2Cl)nc(SC(C)C)[nH]c1=O` (configuration not stated), the “Ratio EC50” value is 21 in data set [1]; 47 in data set [6]; over 221 in [7]; 1 in [8]; over 53 in [11]. Also, the EC50 was over 60.9 µM in data set [2]; 53.6 µM in [3]; 1.56 µM in [4]; 1.14 µM in [12]; over 251 µM in data set [13]; 23.8 µM in [14]. In addition, the CC50 at 120 h in data set [5] worked out at 251 µM. For the same molecule, the IC50 in data set [9] amounted to 13.1 µM. In addition, the selectivity ratio in [10] was 221.
With `Cc1c(C(C#N)c2ccc(C(C)C)cc2)nc(SC(C)C)[nH]c1=O` (configuration not stated), the “Ratio EC50” value in data set [1] was 9; in [6], over 375; in data set [7], over 375; in data set [8], 3; in data set [11], 17. Further, the EC50 in data set [2] was 10.2 µM; in data set [3], over 225 µM; in [4], 1.5 µM; in [12], 0.6 µM; in [13] it was over 225 µM; in [14] it was 5.51 µM. Moreover, the 50% cytotoxic concentration (CC50) at 120 h in data set [5] stood at 225 µM. Also, in data set [9], the 50% inhibitory concentration (IC50) was 2.15 µM. For the same molecule, the selectivity ratio in data set [10] is 376.
For the molecule `Cc1c(C(C#N)c2cccc(C(F)(F)F)c2)nc(SC(C)C)[nH]c1=O` (configuration not stated), the “Ratio EC50” value in data set [1] is 11; in [6], over 57; in [7] it was over 65; in data set [8] it was 3; in data set [11], 9. The EC50 in data set [2] is 9.98 µM; in data set [3] it was over 60.4 µM; in data set [4], 2.71 µM; in [12] it was 1.06 µM; in [13] it was over 69.2 µM; in data set [14], 12.1 µM. Further, the CC50 at 120 h in [5] was found to be 69.2 µM. For the same molecule, the IC50 in data set [9] was 2.71 µM. The selectivity ratio in data set [10] came to 65.
Take `COc1ccccc1C(C#N)c1nc(SC(C)C)[nH]c(=O)c1C` (configuration not stated): the “Ratio EC50” value in data set [1] stood at 10; in [6], 88; in data set [7], 687; in data set [8], 2; in data set [11] it was 48. For the same molecule, the EC50 was 1.91 µM in [2]; 3.51 µM in [3]; 0.09 µM in data set [4]; 0.04 µM in data set [12]; 27.5 µM in [13]; 0.4 µM in data set [14]. Besides, the CC50 at 120 h in data set [5] is over 379 µM. Besides, the IC50 in data set [9] is 0.158 µM. Further, the selectivity ratio in [10] is over 9380.
In the case of `Cc1c(C(C#N)c2ccccc2Cl)nc(SC(C)C)[nH]c1=O` (configuration not stated), the “Ratio EC50” value was determined as 26 in data set [1]; 146 in [6]; 807 in data set [7]; 1 in data set [8]; 51 in data set [11]. Also, the EC50 turned out to be 3.47 µM in [2]; 9.91 µM in data set [3]; 0.08 µM in data set [4]; 0.068 µM in [12]; 54.9 µM in data set [13]; 1.78 µM in data set [14]. The CC50 at 120 h in [5] was 89.2 µM. In [9], the IC50 was determined as 0.079 µM. Moreover, in [10], the selectivity ratio was found to be 1320.
As for `Cc1cccc(C(C#N)c2nc(SC(C)C)[nH]c(=O)c2C)c1` (configuration not stated), the “Ratio EC50” value in data set [1] amounted to 15; in data set [6], 148; in data set [7] it was 464; in [8], 3; in [11] it was 31. The concentration giving a half-maximal response (EC50) in [2] was found to be 4.41 µM; in data set [3], 20.9 µM; in data set [4], 0.37 µM; in data set [12], 0.141 µM; in [13], 65.4 µM; in [14] it was 2.06 µM. Further, in data set [5], the CC50 at 120 h was 167 µM. Moreover, in data set [9], the half-inhibitory concentration (IC50) stood at 0.271 µM. The selectivity ratio in data set [10] turned out to be 1180.
In the case of `Cc1c(C(C#N)c2ccccc2Br)nc(SC(C)C)[nH]c1=O` (configuration not stated), the “Ratio EC50” value is reported as 17 in [1]; 246 in data set [6]; 469 in data set [7]; 2 in data set [8]; 46 in data set [11]. In addition, the EC50 amounted to 5.28 µM in data set [2]; 28.2 µM in data set [3]; 0.2 µM in data set [4]; 0.115 µM in [12]; 54 µM in [13]; 2 µM in data set [14]. Besides, the CC50 at 120 h in data set [5] is 77.6 µM. In addition, the IC50 in [9] is 0.198 µM. The selectivity ratio in data set [10] came to 676.
For `Cc1c(C(C#N)c2cc(F)cc(F)c2)nc(SC(C)C)[nH]c1=O` (configuration not stated), the “Ratio EC50” value was 36 in data set [1]; 101 in [6]; over 396 in data set [7]; 4 in data set [8]; 17 in data set [11]. In addition, the EC50 is 8.7 µM in data set [2]; 51.5 µM in data set [3]; 1.91 µM in data set [4]; 0.51 µM in data set [12]; over 202 µM in data set [13]; 18.5 µM in [14]. Further, in [5], the cytotoxic concentration (CC50) at 120 h was determined as 202 µM. Moreover, the IC50 in data set [9] stood at 1.29 µM. Also, in data set [10], the selectivity ratio came to 394.
Regarding `Cc1c(C(C#N)c2cccc(Cl)c2)nc(SC(C)C)[nH]c1=O` (configuration not stated), the “Ratio EC50” value is recorded as 32 in [1]; 144 in data set [6]; over 199 in data set [7]; 2 in data set [8]; 21 in [11]. Besides, the EC50 in data set [2] is 7.27 µM; in [3], 50.3 µM; in [4] it was 0.87 µM; in [12], 0.35 µM; in data set [13] it was over 69.7 µM; in [14], 11.2 µM. Further, in data set [5], the CC50 at 120 h came to 172 µM. In [9], the IC50 worked out at 0.713 µM. Also, the selectivity ratio in data set [10] amounted to 493.
In the case of `Cc1ccc(C(C#N)c2nc(SC(C)C)[nH]c(=O)c2C)cc1` (configuration not stated), the “Ratio EC50” value in data set [1] is reported as over 40; in data set [6] it was over 40; in [7], over 40; in data set [8], 2; in data set [11], over 40. The EC50 in data set [2] was over 12.9 µM; in [3], over 12.9 µM; in [4], 0.63 µM; in data set [12], 0.32 µM; in data set [13], over 12.9 µM; in data set [14] it was over 12.9 µM. Besides, the CC50 at 120 h in data set [5] was determined as 12.8 µM. Further, in data set [9], the IC50 came out at 0.667 µM. Further, the selectivity ratio in [10] is 40.
With `Cc1c(C(C#N)c2ccccc2F)nc(SC(C)C)[nH]c1=O` (configuration not stated), the “Ratio EC50” value in data set [1] is reported as 64; in data set [6], 192; in [7] it was over 2051; in data set [8], 3; in data set [11] it was 71. In addition, the EC50 is 3.92 µM in data set [2]; 10.6 µM in [3]; 0.17 µM in [4]; 0.055 µM in data set [12]; over 113 µM in data set [13]; 3.53 µM in data set [14]. Further, the CC50 at 120 h in data set [5] came to 113 µM. The IC50 in [9] was 0.099 µM. The selectivity ratio in data set [10] turned out to be 2030.
As for `Cc1c(C(C#N)c2cccc(F)c2)nc(SC(C)C)[nH]c1=O` (configuration not stated), the “Ratio EC50” value is 50 in data set [1]; 245 in data set [6]; over 753 in data set [7]; 4 in [8]; 26 in data set [11]. Also, the EC50 in data set [2] was 6.89 µM; in [3], 65.6 µM; in data set [4], 0.96 µM; in [12], 0.268 µM; in [13], over 202 µM; in [14] it was 13.5 µM. For the same molecule, the CC50 at 120 h in data set [5] was determined as 202 µM. The IC50 in [9] was 0.829 µM. Besides, the selectivity ratio in [10] worked out at 754.
Consider `Cc1c(C(C#N)c2ccccc2)nc(SC(C)C)[nH]c1=O` (configuration not stated), for which the “Ratio EC50” value in [1] is on record as 28; in data set [6], 185; in [7] it was over 550; in [8], 2; in [11], 25. Further, the half-maximal effective concentration (EC50) was 9.21 µM in data set [2]; 68.3 µM in data set [3]; 0.87 µM in data set [4]; 0.37 µM in [12]; over 204 µM in data set [13]; 10.3 µM in data set [14]. Also, the CC50 at 120 h in data set [5] stood at 204 µM. In addition, in [9], the IC50 amounted to 1.51 µM. Further, the selectivity ratio in [10] was 547.
